Source: patent US20260109707A1, “HETEROBIFUNCTIONAL COMPOUNDS AND METHODS OF TREATING DISEASE” (Halda Therapeutics OpCo. Inc., priority 2022, published 2026)

How the values were obtained:
[1] = tested on: T-Rex 293 cell line SC3 cells lacking increased expression of androgen receptor protein; experiment: Cellular growth inhibition assay, T-Rex 293 SC3 cells without doxycycline (CellTiter-Glo, 72 hours); format: cell-based; settings: T-Rex 293 cell line SC3 cells not exposed to doxycycline (lacking increased androgen receptor expression)
Method in brief: (§1)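 Doxycycline (10 ng/mL) was either included or omitted to toggle wild-type androgen receptor expression in SC3 cells, a T-Rex 293 clone, grown in stripped-serum, phenol red-free medium. After 72 hours with compound, viable cells were quantified by CellTiter-Glo 2.0.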

[2] = tested on: T-Rex 293 cell line SC3 cells having increased expression of androgen receptor protein due to exposure to doxycycline; experiment: Cellular growth inhibition assay, T-Rex 293 SC3 cells with doxycycline (CellTiter-Glo, 72 hours); format: cell-based; settings: 72 h, T-Rex 293 SC3 cells with increased androgen receptor expression due to doxycycline (10 ng/mL)
Method in brief: as §1

VCaP cells = experiment: Cellular growth inhibition assay for VCaP cells (CellTiter-Glo, 72 hours); format: cell-based, human; settings: Homo sapiens, VCaP, 72 h
Method in brief: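 Luminescent viability signal after 72 h of compound exposure gave GI50 values by four-parameter nonlinear regression. Compounds were added in 0.5% DMSO to cells plated 24 h earlier at 5000/well in DMEM containing 10% FBS.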

BRD4-BD1 = target: T1, BRD4-BD1 (Homo sapiens, UniProt O60885); experiment: bromoKdELECT assay for binding affinity to BRD4-BD1; settings: binding to BRD4-BD1, Table 4
T1 construct: made in house; host or cells: T7 phage grown in an E. coli host derived from the BL21 strain
Method: (§2) Compounds were tested using a bromoKdELECT assay. T7 phage strains displaying bromodomains were grown in parallel in 24-well blocks in an E. coli host derived from the BL21 strain. E. coli were grown to log-phase and infected with T7 phage from a frozen stock (multiplicity of infection=0.4) and incubated with shaking at 32° C. until lysis (90-150 minutes). The lysates were centrifuged (5,000×g) and filtered (0.2 μm) to remove cell debris. Streptavidin-coated magnetic beads were treated with biotinylated small molecule or acetylated peptide ligands for 30 minutes at room temperature to generate affinity resins for bromodomain assays. The liganded beads were blocked with excess biotin and washed with blocking buffer (SeaBlock (Pierce), 1% BSA, 0.05% Tween 20, 1 mM DTT) to remove unbound ligand and to reduce nonspecific phage binding. Binding reactions were assembled by combining bromodomains, liganded affinity beads, and test compounds in 1× binding buffer (17% SeaBlock, 0.33×PBS, 0.04% Tween 20, 0.02% BSA, 0.004% Sodium azide, 7.4 mM DTT). Test compounds were prepared as 1000× stocks in 100% DMSO. Kds were determined using an 11-point 3-fold compound dilution series with one DMSO control point. All compounds for Kd measurements are distributed by acoustic transfer (non-contact dispensing) in 100% DMSO. The compounds were then diluted directly into the assays such that the final concentration of DMSO was 0.09%. All reactions performed in polypropylene 384-well plates. Each was a final volume of 0.02 ml. The assay plates were incubated at room temperature with shaking for 1 hour and the affinity beads were washed with wash buffer (1×PBS, 0.05% Tween 20). The beads were then resuspended in elution buffer (1×PBS, 0.05% Tween […] non-biotinylated affinity ligand) and incubated at room temperature with shaking for 30 minutes. The bromodomain concentration in the eluates was measured by qPCR.

androgen receptor = target: T2, androgen receptor (Homo sapiens, UniProt P10275); experiment: Assay for binding affinity to androgen receptor ([3H]methyltrienolone radioligand, cell cytosol); settings: binding to the androgen receptor, Table 3
T2 sequence (P10275 1-920 T878A): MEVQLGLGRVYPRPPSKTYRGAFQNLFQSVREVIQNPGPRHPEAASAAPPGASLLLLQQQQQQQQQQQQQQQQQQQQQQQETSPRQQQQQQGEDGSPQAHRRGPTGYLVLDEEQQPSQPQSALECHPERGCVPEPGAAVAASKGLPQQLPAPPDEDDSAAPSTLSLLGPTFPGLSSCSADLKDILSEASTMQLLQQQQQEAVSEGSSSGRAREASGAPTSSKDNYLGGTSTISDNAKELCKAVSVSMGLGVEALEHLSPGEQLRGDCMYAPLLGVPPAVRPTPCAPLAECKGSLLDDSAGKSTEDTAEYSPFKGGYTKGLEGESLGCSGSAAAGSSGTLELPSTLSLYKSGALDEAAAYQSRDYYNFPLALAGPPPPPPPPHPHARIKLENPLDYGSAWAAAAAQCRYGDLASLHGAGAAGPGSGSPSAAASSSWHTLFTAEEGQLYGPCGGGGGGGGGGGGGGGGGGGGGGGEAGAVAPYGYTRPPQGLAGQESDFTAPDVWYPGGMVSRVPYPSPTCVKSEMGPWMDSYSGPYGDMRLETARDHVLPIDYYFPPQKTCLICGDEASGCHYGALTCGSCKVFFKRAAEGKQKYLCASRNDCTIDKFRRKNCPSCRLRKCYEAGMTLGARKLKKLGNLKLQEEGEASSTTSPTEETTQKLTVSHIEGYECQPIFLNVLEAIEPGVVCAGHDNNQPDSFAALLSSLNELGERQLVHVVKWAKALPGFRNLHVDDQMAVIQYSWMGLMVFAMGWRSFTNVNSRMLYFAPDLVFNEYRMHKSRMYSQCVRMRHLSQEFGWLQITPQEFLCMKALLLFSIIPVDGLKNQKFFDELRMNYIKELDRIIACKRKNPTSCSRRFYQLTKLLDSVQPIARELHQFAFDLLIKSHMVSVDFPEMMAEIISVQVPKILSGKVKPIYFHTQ
Method: Fractions of cell cytosol ([…]) were incubated for 24 hr at 4° C. with 1 nM [^3H]methyltrienolone in the absence or presence of the test compound in a buffer containing 25 mM Hepes-Tris (pH 7.4), 1 mM EDTA, 10 mM Na2MoO4, 2 mM DTT, 5 μM triamcinolone acetonide, and 10% glycerol. Nonspecific binding was determined in the presence of […] testosterone. Following incubation, the samples were filtered rapidly under vacuum through glass fiber filters (GF/B, Packard) presoaked with 0.3% PEI and rinsed several times with ice-cold 50 mM Tris-HCl using a 96-sample cell harvester (Unifilter, Packard). The filters were dried then counted for radioactivity in a scintillation counter (Topcount, Packard) using a scintillation cocktail (Microscint 0, Packard). The results are expressed as a percent inhibition of the control radioligand specific binding. The standard reference compound is testosterone, which is tested in each experiment at several concentrations to obtain a competition curve from which its IC50 is calculated.

BRD4-BD2 = target: T3, BRD4-BD2 (Homo sapiens, UniProt O60885); experiment: bromoKdELECT assay for binding affinity to BRD4-BD2; settings: binding to BRD4-BD2, Table 5
T3 construct: made in house; host or cells: T7 phage grown in an E. coli host derived from the BL21 strain
Method: as §2, with “[…])” for “μm)”

Structure (SMILES) | GI50 ([1]; 72 h) | GI50 [2] | GI50 (VCaP cells) | Kd (BRD4-BD1) | Kd (androgen receptor) | GI50 [1] | Kd (BRD4-BD2)
Cc1sc2c(c1C)C(c1ccc(Cl)cc1)=N[C@@H](CC(=O)NCCOCCOCCOCCOCCOC1CCN(c3ccc(C(=O)N[C@H]4CC[C@H](Oc5ccc(C#N)c(Cl)c5)CC4)nn3)CC1)c1nnc(C)n1-2 [I-3, N-[4-(3-chloro-4-cyano-phenoxy)cyclohexyl]-6-[4-[2-[2-[2-[2-[2-[[2-[7-(4-chlorophenyl)-4,5,13-trimethyl-3-thia-1,8,11,12-tetrazatricyclo[8.3.0.0^2,6]trideca-2(6),4,7,10,12-pentaen-9-yl]acetyl]amino]ethoxy]ethoxy]ethoxy]ethoxy]ethoxy]-1-piperidyl]pyridazine-3-carboxamide] | 1500 to 3000 nM | < 500 nM | < 500 nM | < 50 nM |  |  | 
CCNC(=O)C[C@@H]1N=C(c2ccc(N3CCC(CN4CC(N(C)c5ccc(C(=O)N[C@H]6CC[C@H](Oc7ccc(C#N)c(Cl)c7)CC6)nn5)C4)CC3)cc2)c2c(sc(C)c2C)-n2c(C)nnc21 [I-68] | > 3000 nM | > 3000 nM | 500 to 1500 nM |  | 50 to 500 nM |  | 
CCNC(=O)C[C@@H]1N=C(c2ccc(N3CCC(N(C)C4CN(c5ccc(C(=O)N[C@H]6CC[C@H](Oc7ccc(C#N)c(Cl)c7)CC6)nn5)C4)CC3)cc2)c2c(sc(C)c2C)-n2c(C)nnc21 [I-63] | 500 to 1500 nM | < 500 nM | < 500 nM |  | < 50 nM |  | 
CCNC(=O)C[C@@H]1N=C(c2ccc(CCCC3CCN(c4ccc(C(=O)N[C@H]5CC[C@H](Oc6ccc(C#N)c(Cl)c6)CC5)nn4)CC3)cc2)c2c(sc(C)c2C)-n2c(C)nnc21 [I-51] |  | < 500 nM |  | 50 to 500 nM |  | 500 to 1500 nM | < 50 nM
CCNC(=O)C[C@@H]1N=C(c2ccc(OCCOCCOCCOC3CCN(c4ccc(C(=O)N[C@H]5CC[C@H](Oc6ccc(C#N)c(Cl)c6)CC5)nn4)CC3)cc2)c2c(sc(C)c2C)-n2c(C)nnc21 [I-9] | 500 to 1500 nM | < 500 nM | < 500 nM |  | < 50 nM |  | 
